Columns and labels:
Rattus norvegicus [1] = experiment: In vivo antidiuretic potency of compound was determined in rat
Rattus norvegicus [2] = organism: Rattus norvegicus; experiment: In vitro uterotonic potency of compound was determined in rat; type: functional
Rattus norvegicus [3] = organism: Rattus norvegicus; experiment: Pressor potency of compound was determined in rat; type: functional
Gallus gallus = organism: Gallus gallus; experiment: Avian vasodepressor potency of compound was determined

Row | Structure (SMILES) | Activity (Rattus norvegicus [1]) [mg] | Activity (Rattus norvegicus [2]) [mg] | Activity (Rattus norvegicus [3]) [mg] | Activity (Gallus gallus) [mg]
1 | NCCCC[C@H](NC(=O)[C@@H]1CCCN1C(=O)[C@@H]1CSSC[C@H](N)C(=O)N[C@@H](Cc2ccc(O)cc2)C(=O)N[C@@H](Cc2ccccc2)C(=O)N[C@@H](CCC(N)=O)C(=O)N[C@@H](CC(N)=O)C(=O)N1)C(=O)NCC(N)=O | 203 |  |  | 
2 | CN(C)C(=O)C[C@@H]1NC(=O)[C@H](CCC(N)=O)NC(=O)[C@H](Cc2ccccc2)NC(=O)[C@H](Cc2ccc(O)cc2)NC(=O)[C@@H](N)CSSC[C@@H](C(=O)N2CCC[C@H]2C(=O)N[C@@H](CCCCN)C(=O)NCC(N)=O)NC1=O | 5.5 | < 0.05 | 2.55 | 0.39

— ChEMBL document CHEMBL1121395, “[5-(N4,N4-Dimethylasparagine),8-lysine]vasopressin: the first 5-position neurohypophyseal hormone analogue to retain to retain significant antidiuretic potency” (1980)
